# From patent US20080293712A1, “Benzo[C][2,7]Naphtyridine Derivatives, Methods of Making Thereof and Methods of Use Thereof” (WYETH, priority 2007, published 2008)
# pIC50: −log10 of the molar value.
# Molecular target: T1, PDK-1 (Homo sapiens, UniProt O15530)
# T1 sequence (O15530 1-556): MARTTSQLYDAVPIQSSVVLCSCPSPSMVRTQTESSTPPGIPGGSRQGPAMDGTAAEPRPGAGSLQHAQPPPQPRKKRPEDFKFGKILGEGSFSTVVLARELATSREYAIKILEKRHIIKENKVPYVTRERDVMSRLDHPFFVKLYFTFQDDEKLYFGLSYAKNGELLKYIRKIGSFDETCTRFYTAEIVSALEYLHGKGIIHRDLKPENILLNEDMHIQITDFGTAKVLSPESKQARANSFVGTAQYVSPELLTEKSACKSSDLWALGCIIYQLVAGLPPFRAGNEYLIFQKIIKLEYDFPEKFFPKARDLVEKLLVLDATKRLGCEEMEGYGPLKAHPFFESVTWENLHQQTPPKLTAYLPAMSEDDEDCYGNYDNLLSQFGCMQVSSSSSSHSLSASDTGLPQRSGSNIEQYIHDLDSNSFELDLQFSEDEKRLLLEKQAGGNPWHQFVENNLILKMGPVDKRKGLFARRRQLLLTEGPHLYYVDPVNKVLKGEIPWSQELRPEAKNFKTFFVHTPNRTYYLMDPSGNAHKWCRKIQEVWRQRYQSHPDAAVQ
# Assay: PDK-1 kinase inhibition ELISA assay (phosphorylation of His6-tagged SGK1 S422D by PDK-1)
# Type: biochemical
# Conditions: PDK-1 ELISA, Table 11; read-out: Average IC50
row,pIC50,Structure (SMILES)
1,8.15,"COc1cc2ncc3c(N)nc(-c4cncc(OC[C@@H](N)COc5ccc(F)c(F)c5)c4)cc3c2cc1OC [Ib-143, 2-(5-{[(2S)-2-amino-3-(3,4-difluorophenoxy)propyl]oxy}pyridin-3-yl)-8,9-dimethoxybenzo[c][2,7]naphthyridin-4-amine]"
2,8.52,"COc1cc2ncc3c(N)nc(-c4cncc(OC[C@@H](N)CSc5nccs5)c4)cc3c2cc1OC [Ib-166, 2-(5-{[(2R)-2-amino-3-(1,3-thiazol-2-ylthio)propyl]oxy}pyridin-3-yl)-8,9-dimethoxybenzo[c][2,7]naphthyridin-4-amine]"
3,6.00,"COc1cc2ncc3c(N)nc(-c4cncc(Nc5ccccc5OCc5ccccc5)c4)cc3c2cc1OC [Ib-202, 2-(5-{[2-(benzyloxy)phenyl]amino}pyridin-3-yl)-8,9-dimethoxybenzo[c][2,7]naphthyridin-4-amine]"
4,5.65,"COCCOc1cc2ncc3c(N)nc(N(C)CCOC)cc3c2cc1OC [Ia-54, 9-methoxy-8-(2-methoxyethoxy)-N^2-(2-methoxyethyl)-N^2-methylbenzo[c]-2,7-naphthyridine-2,4-diamine]"
5,6.27,COc1cc2ncc3c(N)nc(-c4cccnc4C)cc3c2cc1OC [Ib-60]
6,6.10,"COc1cc2ncc3c(N)nc(-c4cncc(OCC(=O)c5ccccc5)c4)cc3c2cc1OC [Ib-267, 2-{[5-(4-amino-8,9-dimethoxybenzo[c][2,7]naphthyridin-2-yl)pyridin-3-yl]oxy}-1-phenylethanone]"
7,7.28,"COc1cc2ncc3c(N)nc(-c4cncc(OC[C@@H](N)CNCC5CCCCC5)c4)cc3c2cc1OC [Ib-95, (2S)-3-{[5-(4-amino-8,9-dimethoxybenzo[c][2,7]naphthyridin-2-yl)pyridin-3-yl]oxy}-N1-(cyclohexylmethyl)propane-1,2-diamine]"
8,6.22,"CCC(C)NC(=N)c1cncc(-c2cc3c(cnc4cc(OC)c(OC)cc43)c(N)n2)c1 (stereo not shown) [Ib-270, 5-(4-Amino-8,9-dimethoxybenzo[c][2,7]naphthyridin-2-yl)-N-sec-butylnicotin-imidamide]"
9,7.49,"CC[C@@H](COc1cncc(-c2cc3c(cnc4cc(OC)c(OC)cc43)c(N)n2)c1)NC(=N)N [Ib-251, (S)-1-(1-(5-(4-amino-8,9-dimethoxybenzo[c][2,7]naphthyridin-2-yl)pyridin-3-yloxy)butan-2-yl)guanidine]"
10,7.09,"CCN(CC)CCNC(=O)c1ccc(Nc2cncc(-c3cc4c(cnc5cc(OC)c(OC)cc54)c(N)n3)c2)cc1 [Ib-191, 4-{[5-(4-amino-8,9-dimethoxybenzo[c][2,7]naphthyridin-2-yl)pyridin-3-yl]amino}-N-[2-(diethylamino)ethyl]benzamide]"
11,7.96,"COc1cc2ncc3c(N)nc(-c4cncc(OC[C@@H](N)CN(C)S(=O)(=O)c5ccccc5)c4)cc3c2cc1OC [Ib-79, N-[(2S)-2-amino-3-{[5-(4-amino-8,9-dimethoxybenzo[c][2,7]naphthyridin-2-yl)pyridin-3-yl]oxy}propyl]-N-methylbenzenesulfonamide]"
12,6.69,"COc1cc2ncc3c(N)nc(-c4ccc5[nH]ncc5c4)cc3c2cc1OC [Ib-249, 2-(1H-indazol-5-yl)-8,9-dimethoxybenzo[c][2,7]naphthyridin-4-amine]"
13,8.40,"COc1cc2ncc3c(N)nc(-c4cncc(OC[C@@H](N)CNC(C)(C)c5ccccn5)c4)cc3c2cc1OC [Ib-94, (2S)-3-{[5-(4-amino-8,9-dimethoxybenzo[c][2,7]naphthyridin-2-yl)pyridin-3-yl]oxy}-N1-(1-methyl-1-pyridin-2-ylethyl)propane-1,2-diamine]"
14,6.00,"COc1cc2ncc3c(N)nc(-c4cc(F)cc(C#N)c4)cc3c2cc1OC [Ib-241, 3-(4-amino-8,9-dimethoxybenzo[c][2,7]naphthyridin-2-yl)-5-fluorobenzonitrile]"
15,6.82,"COc1cc2ncc3c(N)nc(-c4cncc(Oc5cccc(N)n5)c4)cc3c2cc1OC [Ib-171, 2-{5-[(6-Aminopyridin-2-yl)oxy]pyridin-3-yl}-8,9-dimethoxybenzo[c][2,7]naphthyridin-4-amine]"
16,6.55,"COc1cc2ncc3c(N)nc(-c4cncc(Nc5ccccc5)c4)cc3c2cc1OC [Ib-203, 2-(5-anilinopyridin-3-yl)-8,9-dimethoxybenzo[c][2,7]naphthyridin-4-amine]"
17,7.54,"COc1cc2ncc3c(N)nc(-c4cncc(CCC(C)(C)N)c4)cc3c2cc1OC [Ib-257, 2-[5-(3-amino-3-methylbutyl)pyridin-3-yl]-8,9-dimethoxybenzo[c][2,7]naphthyridin-4-amine]"

row,pIC50,Structure (SMILES)
1,5.02,"COc1cc2ncc3c(N)nc(N4CC[C@H](N(C)C)C4)cc3c2cc1OC [Ib-67, 2-[(3S)-3-(dimethylamino)pyrrolidin-1-yl]-8,9-dimethoxybenzo[c]-2,7-naphthyridin-4-amine]"
2,5.43,"COCCOc1cc2ncc3c(N)nc(N4CCC(CCO)CC4)cc3c2cc1OC [Ia-51, 2-{1-[4-amino-9-methoxy-8-(2-methoxyethoxy)benzo[c]-2,7-naphthyridin-2-yl]piperidin-4-yl}ethanol]"
3,< 7.00,"COc1cc2ncc3c(N)nc(-c4cncc(C#CCN(C)[C@H](C)Cc5ccccc5)c4)cc3c2cc1OC [Ib-22, 8,9-Dimethoxy-2-[5-(3-{methyl[(1R)-1-methyl-2-phenylethyl]amino}prop-1-yn-1-yl)pyridin-3-yl]benzo[c]-2,7-naphthyridin-4-amine]"
4,6.22,"COc1cc2ncc3c(N)nc(-c4cncc(C(=N)NC(C)C)c4)cc3c2cc1OC [Ib-269, 5-(4-Amino-8,9-dimethoxybenzo[c][2,7]naphthyridin-2-yl)-N-isopropylnicotin-imidamide]"
5,8.30,"COc1cc2ncc3c(N)nc(-c4cncc(OC[C@@H](N)CN(C)Cc5cccc(F)c5)c4)cc3c2cc1OC [Ib-8, (2S)-3-{[5-(4-amino-8,9-dimethoxybenzo[c]-2,7-naphthyridin-2-yl)pyridin-3-yl]oxy}-N1-(3-fluorobenzyl)-N1-methylpropane-1,2-diamine]"
6,< 6.15,"COc1cc2ncc3c(N)nc(-c4cncc(Nc5cccc(C#N)c5)c4)cc3c2cc1OC [Ib-179, 3-{[5-(4-amino-8,9-dimethoxybenzo[c][2,7]naphthyridin-2-yl)pyridin-3-yl]amino}benzonitrile]"
7,8.30,"COc1cc2ncc3c(N)nc(-c4cncc(OC[C@@H](N)CN(C)c5cccc(F)c5)c4)cc3c2cc1OC [Ib-83, (2S)-3-{[5-(4-amino-8,9-dimethoxybenzo[c][2,7]naphthyridin-2-yl)pyridin-3-yl]oxy}-N1-(3-fluorophenyl)-N1-methylpropane-1,2-diamine]"
8,5.34,"COc1cc2ncc3c(N)nc(N4CC[C@@H](O)C4)cc3c2cc1OC [Ib-65, (3R)-1-(4-amino-8,9-dimethoxybenzo[c]-2,7-naphthyridin-2-yl)pyrrolidin-3-ol]"
9,7.62,"COc1cc2ncc3c(N)nc(-c4cncc(OC[C@@H](N)CNCCc5ccncc5)c4)cc3c2cc1OC [Ib-97, (2S)-3-{[5-(4-amino-8,9-dimethoxybenzo[c][2,7]naphthyridin-2-yl)pyridin-3-yl]oxy}-N1-(2-pyridin-4-ylethyl)propane-1,2-diamine]"
10,6.30,"COc1cc2ncc3c(N)nc(-c4cncc(Nc5ccccc5Nc5ccccc5)c4)cc3c2cc1OC [Ib-183, N-[5-(4-amino-8,9-dimethoxybenzo[c][2,7]naphthyridin-2-yl)pyridin-3-yl]-N′-phenylbenzene-1,2-diamine]"
11,5.38,"COc1cc2ncc3c(N)nc(N4CC[C@H](O)C4)cc3c2cc1OC [Ib-68, (3S)-1-(4-amino-8,9-dimethoxybenzo[c]-2,7-naphthyridin-2-yl)pyrrolidin-3-ol]"
12,7.70,"COc1cc2ncc3c(N)nc(-c4cncc(OC[C@@H](N)CNc5nccc(C)n5)c4)cc3c2cc1OC [Ib-113, (2S)-3-{[5-(4-amino-8,9-dimethoxybenzo[c][2,7]naphthyridin-2-yl)pyridin-3-yl]oxy}-N1-(4-methylpyrimidin-2-yl)propane-1,2-diamine]"
13,5.45,"COc1cc2ncc3c(N)nc(N(C)Cc4cccnc4)cc3c2cc1OC [Ib-64, 8,9-dimethoxy-N^2-methyl-N^2-(pyridin-3-ylmethyl)benzo[c]-2,7-naphthyridine-2,4-diamine]"
14,< 4.70,"CCOc1cc2ncc3c(N)nc(-c4ccc(Br)cc4)cc3c2cc1OCC [Ia-47, 2-(4-bromophenyl)-8,9-diethoxybenzo[c]-2,7-naphthyridin-4-amine]"
15,6.26,"CCOc1cc2ncc3c(N)nc(-n4ccnc4)cc3c2cc1NC(=S)NCCN1CCOCC1 [Ia-26, N-[4-amino-8-ethoxy-2-(1H-imidazol-1-yl)benzo[c]-2,7-naphthyridin-9-yl]-N′-(2-morpholin-4-ylethyl)thiourea]"
16,8.22,"COc1cc2ncc3c(N)nc(-c4cncc(OC[C@@H](N)COc5nc6ccccc6s5)c4)cc3c2cc1OC [Ib-150, 2-(5-{[(2R)-2-amino-3-(1,3-benzothiazol-2-yloxy)propyl]oxy}pyridin-3-yl)-8,9-dimethoxybenzo[c][2,7]naphthyridin-4-amine]"
17,8.00,"COc1cc2ncc3c(N)nc(-c4cncc(OC[C@@H](N)COc5ccccc5F)c4)cc3c2cc1OC [Ib-141, 2-(5-{[(2R)-2-amino-3-(2-fluorophenoxy)propyl]oxy}pyridin-3-yl)-8,9-dimethoxybenzo[c][2,7]naphthyridin-4-amine]"
